These results are taken from patent publication US20090062150A1, “COMPOSITIONS AND METHODS FOR REGULATING INTRAMEMBRANE PROTEASES” (priority 2006, published 2009).

Assay [1] has as its target T1, truncated GlpG transmembrane core domain (Escherichia coli, UniProt P09391).
T1 construct: The transmembrane core domain of GlpG (residues 87-276) was purified as described previously; made in house
Kind of assay: In vitro protease activity assay of GlpG core domain. Format: biochemical, E. coli. As to conditions: for inhibition of GlpG by other detergents: wide range of concentrations up to several times their CMCs, data not shown. Here is the method:
Structural characterization of E. coli rhomboid protease, GlpG, was carried out using an N-terminally truncated GlpG transmembrane core domain (residues 87-276). In vitro characterization of the enzymatic activity of the truncated GlpG was reconstituted to validate the use of the GlpG core domain for crystallographic studies was carried out using two separate assays. Proteolytic activity of purified truncated GlpG core domain on an artificial protein substrate in detergent micelles was analyzed at 37° C. […] Proteolytic activity of purified truncated GlpG core domain was also compared with full length GlpG using C100-Spitz-Flag as substrate.
Combinatorial library technology provides an efficient way of testing a potentially vast number of different substances for their ability to modulate the activity of a rhomboid protease. In some embodiments, test substances may be screened for their ability to interact with the rhomboid protease in an enzymatic assay. For example, in one such enzymatic assay an artificial protein substrate, such as, for example, a membrane: associated protein, such as, CED-4, or C100-Spitz-Flag may be contacted with a rhomboid protease, such as GlpG. Cleavage products may then be analyzed by, for example, sodium dodecyl-sulfate polyacrylamide gel electrophoresis (SDS-PAGE). A test substance may be added to such an enzymatic, assay as a separate component, and modulation of the enzymatic activity of the rhomboid protease may be apparent by a reduction or enhancement of the amount or type of cleavage product. The modulation of activity may be indicative of binding of the test substance to the rhomboid protease.
The proteolytic activity of GlpG was examined as described by Wu et al.

For assay [2], the target named is T1, truncated GlpG transmembrane core domain. The settings on record: qualitative statement, no data shown; cited from earlier work.
A further assay relates to rhomboid protease. As to conditions: qualitative statement; cited from earlier work.

T1 sequence (P09391 87-276): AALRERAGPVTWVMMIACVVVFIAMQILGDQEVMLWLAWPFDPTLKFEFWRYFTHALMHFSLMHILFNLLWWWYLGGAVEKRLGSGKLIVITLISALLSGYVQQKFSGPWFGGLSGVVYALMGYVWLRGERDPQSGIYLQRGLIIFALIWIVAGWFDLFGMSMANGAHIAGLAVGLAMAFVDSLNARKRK

Consider `CCCCCCCCOCCOCCOCCOCCO` [C8E4, tetraethyleneglycol monooctyl ether], for which, in assay [1] (at concentrations above its critical micelle concentration (CMC), artificial substrate, FIG. 4A left panel), the “inhibition of enzymatic activity on artificial substrate” value is on record as “inhibit enzymatic activity”. Moreover, the “inhibition of proteolysis of C100-Spitz-Flag” value in assay [1] (substrate C100-Spitz-Flag, FIG. 4A right panel) is listed as “inhibition is also observed”.

With `O=c1oc(Cl)c(Cl)c2ccccc12` [DCI, Dichloroisocoumarin], the “inhibition of GlpG” value in assay [2] is “relatively potent inhibition”. Further, in the assay with rhomboid protease, the “inhibition of rhomboid activity” value is recorded as “inhibit rhomboid activity” and the specificity for rhomboid result is given as “lack specificity”.

In the case of `CCCCCCCCCCCC[N+](C)(C)[O-]` [LDAO], in assay [1], the “inhibition of GlpG by other detergents” value is given as “no inhibition”.

On to `Cc1ccc(S(=O)(=O)N[C@@H](Cc2ccccc2)C(=O)CCl)cc1` [TPCK], for which, in the assay on rhomboid protease, the “inhibition of rhomboid activity” value is “inhibit rhomboid activity” and the specificity for rhomboid result is “lack specificity”.

Turning to `CCCCCCCCCO[C@@H]1O[C@H](CO)[C@@H](O)[C@H](O)[C@H]1O` [nonyl glucoside], the “inhibition of GlpG by other detergents” value in assay [1] is reported as “no inhibition”.
